Reference: patent EP4702978A1, “AGENT FOR TREATING OR PREVENTING AMYOTROPHIC LATERAL SCLEROSIS” (Socium Inc., priority 2023, dated 2024)
“Also recorded” adds a separate entry of the source. Read-outs that look alike come from different tables or passages of the source.

Assays:
[1] = cited from earlier work
TDP-43 = experiment: Soluble and insoluble fractions of TDP-43 in TDP-43-transfected Neuro2a cells, Western blot (Example 2); format: cell-based, Mouse; conditions: 10 µmol/L added 6 hours after transfection, cultured for 12 hours; for soluble fractions versus insoluble fractions of TDP-43 in the cells: Figure 5; for proportion of insoluble fractions based on a total number of soluble fractions and insoluble fractions of TDP-43: Figure 6
Experimental: (§1) Mouse neuroblastoma (Neuro2a) cells were seeded on a dish. The Neuro2a cells were cultured in a culture medium containing DMEM+10% FBS at 37°C in the presence of 5% CO2. On the first day after seeding, differentiation into neurons was initiated. Differentiation into neurons was performed in a culture medium containing DMEM+2% FBS+20 µmol/L retinoic acid. On the fourth day after seeding, cells were transfected with synthesized TDP-43 mRNA by a lipofection method. Cells were sampled at 6 hours, 9 hours, 12 hours, 15 hours, 18 hours, and 21 hours after transfection. […] For sampling, cells were lysed in an RIPA buffer and centrifuged at 22,000 Xg for 30 minutes at 4°C, the supernatant was used as the soluble fraction, the precipitate was used as the insoluble fraction, and equal volumes of a 2×SDS sample buffer were added to the respective fractions and heated at 95°C for 5 minutes to prepare electrophoresis samples. The electrophoresis samples were subjected to electrophoresis using a polyacrylamide gel, TDP-43 was then transferred to a PVDF membrane. TDP-43 was detected through chemiluminescence using anti-TDP-43 antibodies as primary antibodies and HRP-conjugated anti-rabbit antibodies as secondary antibodies. […] The insoluble fractions of TDP-43 indicate the aggregation of TDP-43.
Neuro2a cells were seeded on a dish. On the first day after seeding, differentiation into neurons was initiated. On the fourth day after seeding, cells were transfected with the TDP-43 gene.

[2] = cited from earlier work; remark: listed apart in the source
[3] = system: Neuro2a cells transfected with the TDP-43 gene; experiment: Inhibition of cell death in neuronally differentiated Neuro2a cells transfected with the TDP-43 gene (Example 1); format: cell-based, Mouse; conditions: evaluated 7 days after transfection; for EC50: Mus musculus, N2a, compound added 5 hours after transfection, 10-10,000 nmol/L, relative viability, read-out: EC50 (inhibition of cell death in nerve cells forcibly expressing TDP-43); for inhibition of cell death: cells transfected with the TDP-43 gene, Figures 3C and 4
Experimental: as §1
Neuro2a cells were seeded on a dish. On the first day after seeding, differentiation into neurons was initiated. On the fourth day after seeding, cells were transfected with the TDP-43 gene. […] In addition, as a control, 10 nmol/L, 50 nmol/L, 100 nmol/L, 500 nmol/L, 1,000 nmol/L, 5,000 nmol/L, or 10,000 nmol/L of ropinirole was added to a culture medium.
The proportion of dead cells was evaluated 7 days after the cells were transfected with the TDP-43 gene.

[4] = system: TDP-43 in motor neurons derived from iPS cells of ALS patients; experiment: Soluble and insoluble fractions of TDP-43 in motor neurons derived from iPS cells of ALS patients, Western blot (Example 3); format: cell-based, human; conditions: 10 µmol/L, cultured for 20 days; for bands for soluble and insoluble fractions of TDP-43: Figure 7; for average proportion of insoluble fractions of TDP-43: three experiments, DMSO control about 46.1%, Figure 8
[5] = system: TDP-43 in motor neurons derived from iPS cells of healthy subjects; experiment: Soluble and insoluble fractions of TDP-43 in motor neurons derived from iPS cells of healthy subjects, Western blot (Example 3); format: cell-based, human; conditions: 10 µmol/L, cultured for 20 days, Figure 7
[6] = Reported pharmacokinetics of D-cycloserine after oral administration to humans; format: in vivo; conditions: estimated; 15 mg orally administered twice daily

Compound	side effects ([1]; 150 mg administered to humans)	side effects ([1]; 250 mg administered to humans in order to treat tuberculosis)	soluble fractions versus insoluble fractions of TDP-43 in the cells (TDP-43)	proportion of insoluble fractions based on a total number of soluble fractions and insoluble fractions of TDP-43 (TDP-43)	Cmax ([2]; 15 mg orally administered to humans, read-out: maximum blood concentration (Cmax)) [µM]	half-life ([2]; reported)	EC50 [3] [nM]	inhibition of cell death [3]	bands for soluble and insoluble fractions of TDP-43 [4]	average proportion of insoluble fractions of TDP-43 [4]	bands for soluble and insoluble fractions of TDP-43 [5]	trough value [6] [nmol/L]	side effects ([1]; administered to humans, dose not stated)
N[C@@H]1CONC1=O [D-cycloserine, (4R)-4-Amino-1,2-oxazolidin-3-one]	causes headaches	serious side effects such as epileptiform seizure and mental confusion	the number of soluble fractions of TDP-43 was larger than the number of insoluble fractions of TDP-43	less than half	~5.6	about 10 hours	128	cell death was inhibited; also recorded: exhibited an effect of inhibiting cell death in a concentration-dependent manner	bands for soluble fractions of TDP-43 were clearly observed, and bands for insoluble fractions were unclear	about 17.4%	bands for soluble fractions of TDP-43 were clearly observed, and bands for insoluble fractions were unclear	> 128	
N[C@H]1CONC1=O [L-cycloserine, (4S)-4-amino-1,2-oxazolidin-3-one]			the number of soluble fractions of TDP-43 was larger than the number of insoluble fractions of TDP-43	less than half			237	exhibited an effect of inhibiting cell death in a concentration-dependent manner					
CCCN(CCC)CCc1cccc2c1CC(=O)N2 [ropinirole]							198		bands for soluble fractions of TDP-43 were clearly observed, and bands for insoluble fractions were unclear	about 19.3%	bands for soluble fractions of TDP-43 were clearly observed, and bands for insoluble fractions were unclear		
CC(=O)NCCCS(=O)(=O)O [acamprosate, 3-(acetylamino)propylsulfonic acid]													anaphylaxis associated with symptoms such as generalized skin rash, rash, urticaria, stomatitis, laryngospasm, and shortness of breath; also recorded: angioedema associated with symptoms such as tongue swelling and lymphadenopathy
